Source: article PMC5218480 (PLoS ONE, 2017)

Tested on: MV-4-11 cells
Assay: Gene expression microarray analysis (Affymetrix PrimeView) and GSEA
Format: cell-based, human
Design: RFU PODN (11730768_x_at) / Fold change /veh PODN (11730768_x_at) / RFU LINC00158 (11744669_a_at) / Fold change /veh LINC00158 (11744669_a_at) / RFU DUSP10 (11751237_a_at) / Fold change /veh DUSP10 (11751237_a_at) / RFU ID3 (11757404_x_at) / Fold change /veh ID3 (11757404_x_at) / RFU PLEKHG5 (11737974_s_at) / Fold change /veh PLEKHG5 (11737974_s_at) / RFU LRRC4B (11730491_at) / Fold change /veh LRRC4B (11730491_at) / RFU GIMAP4 (11747438_a_at) / Fold change /veh GIMAP4 (11747438_a_at) / RFU KRT8 (11758183_x_at) / Fold change /veh KRT8 (11758183_x_at) / RFU CNN1 (11734310_a_at) / Fold change /veh CNN1 (11734310_a_at) / RFU VPS37D (11726825_at) / Fold change /veh VPS37D (11726825_at) / RFU C10orf10 (11716522_x_at) / Fold change /veh C10orf10 (11716522_x_at) / RFU KIR2DL2 /// KIR2DL4 /// KIR2DL5A /// KIR2DL5B /// KIR2DS1 /// KIR2DS2 /// KIR2DS3 /// KIR2DS4 /// KIR3DL3 /// KIR3DL3 /// KIR3DS1 (11738374_at) / Fold change /veh KIR2DL2 /// KIR2DL4 /// KIR2DL5A /// KIR2DL5B /// KIR2DS1 /// KIR2DS2 /// KIR2DS3 /// KIR2DS4 /// KIR3DL3 /// KIR3DL3 /// KIR3DS1 (11738374_at) / RFU C1QL1 (11718748_at) / Fold change /veh C1QL1 (11718748_at) / RFU TMPRSS4 (11747572_a_at) / Fold change /veh TMPRSS4 (11747572_a_at) / RFU HAMP (11756126_x_at) / Fold change /veh HAMP (11756126_x_at) / RFU RNFT2 (11725882_a_at) / Fold change /veh RNFT2 (11725882_a_at) / RFU NR4A2 (11747474_a_at) / Fold change /veh NR4A2 (11747474_a_at) / RFU ABCC12 (11746883_a_at) / Fold change /veh ABCC12 (11746883_a_at) / RFU TMEM136 (11760407_x_at) / Fold change /veh TMEM136 (11760407_x_at) / RFU CLDN22 /// WWC2 (11732394_at) / Fold change /veh CLDN22 /// WWC2 (11732394_at) / RFU HLA-DPB1 (11760878_x_at) / Fold change /veh HLA-DPB1 (11760878_x_at) / RFU SPINT1 (11716480_a_at) / Fold change /veh SPINT1 (11716480_a_at) / RFU GAP43 (11754022_s_at) / Fold change /veh GAP43 (11754022_s_at) / RFU A4GNT (11735810_at) / Fold change /veh A4GNT (11735810_at) / RFU PRB3 (11715151_x_at) / Fold change /veh PRB3 (11715151_x_at) / RFU TUBB4B (11761932_at) / Fold change /veh TUBB4B (11761932_at) / RFU CAPN14 (11732068_a_at) / Fold change /veh CAPN14 (11732068_a_at) / RFU TMCC2 (11721928_a_at) / Fold change /veh TMCC2 (11721928_a_at) / RFU IRGQ (11745062_a_at) / Fold change /veh IRGQ (11745062_a_at) / RFU FAM174B (11720279_a_at) / Fold change /veh FAM174B (11720279_a_at) / RFU TMPRSS4 (11748680_a_at) / Fold change /veh TMPRSS4 (11748680_a_at) / RFU FAM212B (11763350_a_at) / Fold change /veh FAM212B (11763350_a_at) / RFU PLEKHG5 (11743358_a_at) / Fold change /veh PLEKHG5 (11743358_a_at) / RFU ZSCAN30 (11745921_a_at) / Fold change /veh ZSCAN30 (11745921_a_at) / RFU CMKLR1 (11741424_a_at) / Fold change /veh CMKLR1 (11741424_a_at) / RFU LOC101060620 /// MAPK8IP1 (11723275_at) / Fold change /veh LOC101060620 /// MAPK8IP1 (11723275_at) / RFU SPTSSB (11747773_x_at) / Fold change /veh SPTSSB (11747773_x_at) / RFU PRSS12 (11739890_at) / Fold change /veh PRSS12 (11739890_at) / RFU BIN1 (11741810_x_at) / Fold change /veh BIN1 (11741810_x_at) / RFU WNT11 (11732464_a_at) / Fold change /veh WNT11 (11732464_a_at) / RFU C10orf10 (11716521_a_at) / Fold change /veh C10orf10 (11716521_a_at) / RFU C5orf56 (11738089_at) / Fold change /veh C5orf56 (11738089_at) / RFU CYB561 (11721691_x_at) / Fold change /veh CYB561 (11721691_x_at) / RFU ANKRD19P (11752326_a_at) / Fold change /veh ANKRD19P (11752326_a_at) / RFU OR2T12 /// OR2T33 /// OR2T8 (11738714_s_at) / Fold change /veh OR2T12 /// OR2T33 /// OR2T8 (11738714_s_at) / RFU VCAN (11748164_a_at) / Fold change /veh VCAN (11748164_a_at) / RFU JSRP1 (11732532_at) / Fold change /veh JSRP1 (11732532_at) / RFU KRTAP10-11 (11738290_x_at) / Fold change /veh KRTAP10-11 (11738290_x_at) / RFU MYO3A (11730013_a_at) / Fold change /veh MYO3A (11730013_a_at) / RFU EBF3 (11725865_a_at) / Fold change /veh EBF3 (11725865_a_at) / RFU CAMK2N1 (11719241_x_at) / Fold change /veh CAMK2N1 (11719241_x_at) / RFU C5orf56 (11738088_a_at) / Fold change /veh C5orf56 (11738088_a_at) / RFU OLFML3 (11715873_a_at) / Fold change /veh OLFML3 (11715873_a_at) / RFU LOC100653217 /// NTM (11731650_a_at) / Fold change /veh LOC100653217 /// NTM (11731650_a_at) / RFU MAPK11 (11762145_a_at) / Fold change /veh MAPK11 (11762145_a_at) / RFU FIZ1 (11724087_x_at) / Fold change /veh FIZ1 (11724087_x_at) / RFU OASL (11726364_x_at) / Fold change /veh OASL (11726364_x_at) / RFU SOX15 (11748057_x_at) / Fold change /veh SOX15 (11748057_x_at) / RFU CD79A (11719716_a_at) / Fold change /veh CD79A (11719716_a_at) / RFU HIST1H1D (11736915_at) / Fold change /veh HIST1H1D (11736915_at) / RFU CASKIN2 (11723855_a_at) / Fold change /veh CASKIN2 (11723855_a_at) / RFU LOC730098 (11760151_x_at) / Fold change /veh LOC730098 (11760151_x_at) / RFU OR4N2 (11742367_at) / Fold change /veh OR4N2 (11742367_at) / RFU PRRT2 (11749266_a_at) / Fold change /veh PRRT2 (11749266_a_at) / RFU SNX32 (11753110_a_at) / Fold change /veh SNX32 (11753110_a_at) / RFU CDHR5 (11726645_a_at) / Fold change /veh CDHR5 (11726645_a_at) / RFU RCAN1 (11760418_a_at) / Fold change /veh RCAN1 (11760418_a_at) / RFU FAM167A (11723789_a_at) / Fold change /veh FAM167A (11723789_a_at) / RFU FAM26E (11764081_at) / Fold change /veh FAM26E (11764081_at) / RFU ISYNA1 (11749810_s_at) / Fold change /veh ISYNA1 (11749810_s_at) / RFU ACY1 (11761880_at) / Fold change /veh ACY1 (11761880_at) / RFU 11764098_at / Fold change /veh 11764098_at / RFU SAMD14 (11745864_x_at) / Fold change /veh SAMD14 (11745864_x_at) / RFU NPB (11741838_a_at) / Fold change /veh NPB (11741838_a_at) / RFU TMPRSS6 (11731388_a_at) / Fold change /veh TMPRSS6 (11731388_a_at) / RFU KRTAP10-2 (11738614_at) / Fold change /veh KRTAP10-2 (11738614_at) / RFU ARHGAP8 /// PRR5-ARHGAP8 (11727945_x_at) / Fold change /veh ARHGAP8 /// PRR5-ARHGAP8 (11727945_x_at) / RFU KRTAP5-7 /// NADSYN1 (11734609_at) / Fold change /veh KRTAP5-7 /// NADSYN1 (11734609_at) / RFU RASL12 (11751679_a_at) / Fold change /veh RASL12 (11751679_a_at) / RFU CDKN2B (11736163_a_at) / Fold change /veh CDKN2B (11736163_a_at) / RFU PRF1 (11729649_at) / Fold change /veh PRF1 (11729649_at) / RFU, ZNF638 /// ZNF638-IT1 / Fold change vs veh, ZNF638 /// ZNF638-IT1 / RFU, PANK3 / Fold change vs veh, PANK3 / RFU, SH3YL1 / Fold change vs veh, SH3YL1 / RFU, ZEB2 / Fold change vs veh, ZEB2 / RFU, NRIP1 / Fold change vs veh, NRIP1 / RFU, PTTG1IP / Fold change vs veh, PTTG1IP / RFU, CAPN2 / Fold change vs veh, CAPN2 / RFU, MED14 / Fold change vs veh, MED14 / RFU, SNORA58 / Fold change vs veh, SNORA58 / RFU, C1orf63 / Fold change vs veh, C1orf63 / RFU, LRRFIP1 / Fold change vs veh, LRRFIP1 / RFU, NDUFAF7 / Fold change vs veh, NDUFAF7 / RFU, SLC12A2 / Fold change vs veh, SLC12A2 / RFU, IBTK / Fold change vs veh, IBTK / RFU, ESF1 / Fold change vs veh, ESF1 / Fold change vs veh, TMEM50B / RFU, TAOK1 / Fold change vs veh, TAOK1 / RFU, ACBD3 / Fold change vs veh, ACBD3 / RFU, TMA16 / Fold change vs veh, TMA16 / RFU, RWDD3 / Fold change vs veh, RWDD3 / RFU, BCAT1 / Fold change vs veh, BCAT1 / RFU, EDEM3 / Fold change vs veh, EDEM3 / RFU, TMEM33 / Fold change vs veh, TMEM33 / RFU, WDR75 / Fold change vs veh, WDR75 / RFU, AHCTF1 / Fold change vs veh, AHCTF1 / RFU, TFRC / Fold change vs veh, TFRC / RFU, ZDHHC17 / Fold change vs veh, ZDHHC17 / RFU, NOM1 / Fold change vs veh, NOM1 / RFU, ARL8B / Fold change vs veh, ARL8B / RFU, ZBTB11 / Fold change vs veh, ZBTB11 / RFU, TAMM41 / Fold change vs veh, TAMM41 / RFU, KIAA1704 /// LOC100996395 / Fold change vs veh, KIAA1704 /// LOC100996395 / RFU, ING1 / Fold change vs veh, ING1 / RFU, TRMT61B / Fold change vs veh, TRMT61B / RFU, FUBP3 / Fold change vs veh, FUBP3 / RFU, TP53 / Fold change vs veh, TP53 / RFU, TNKS2 / Fold change vs veh, TNKS2 / RFU, ZFP14 / Fold change vs veh, ZFP14 / RFU, ACTR2 / Fold change vs veh, ACTR2 / RFU, PPP3R1 / Fold change vs veh, PPP3R1 / RFU, PIK3R1 / Fold change vs veh, PIK3R1 / RFU, HNRNPA1 / Fold change vs veh, HNRNPA1 / RFU, RNF170 / Fold change vs veh, RNF170 / RFU, ZNF28 / Fold change vs veh, ZNF28 / RFU, RNGTT / Fold change vs veh, RNGTT / RFU, OGT / Fold change vs veh, OGT / RFU, BRD1 / Fold change vs veh, BRD1 / RFU, MARS / Fold change vs veh, MARS / RFU, ZNF655 / Fold change vs veh, ZNF655 / RFU, FAHD1 / Fold change vs veh, FAHD1 / RFU, BDP1 / Fold change vs veh, BDP1 / RFU, LRRCC1 / Fold change vs veh, LRRCC1 / RFU, ARID1A / Fold change vs veh, ARID1A / RFU, ZNF146 / Fold change vs veh, ZNF146 / RFU, ZNF330 / Fold change vs veh, ZNF330 / RFU, GPN3 / Fold change vs veh, GPN3 / RFU, C9orf123 / Fold change vs veh, C9orf123 / RFU, N4BP2L2 / Fold change vs veh, N4BP2L2 / RFU, ARFIP1 / Fold change vs veh, ARFIP1 / RFU, FAM179B / Fold change vs veh, FAM179B / RFU, BCL10 / Fold change vs veh, BCL10 / RFU, UHRF1BP1L / Fold change vs veh, UHRF1BP1L / RFU, BET1 / Fold change vs veh, BET1 / RFU, CNOT2 / Fold change vs veh, CNOT2 / RFU, ZNF268 / Fold change vs veh, ZNF268 / Fold change vs veh, ZNF507 / RFU, DGCR2 / Fold change vs veh, DGCR2 / RFU, WDSUB1 / Fold change vs veh, WDSUB1 / Fold change vs veh, HSP90B1 /// MIR3652 / RFU, ADSS / Fold change vs veh, ADSS / RFU, GK / Fold change vs veh, GK / RFU, ZNF148 / Fold change vs veh, ZNF148 / RFU, TAF9 / Fold change vs veh, TAF9 / RFU, SLC1A5 / Fold change vs veh, SLC1A5 / RFU, SLMO2 / Fold change vs veh, SLMO2 / RFU, ABCC4 / Fold change vs veh, ABCC4 / RFU, LOC101060439 /// RAP1B / Fold change vs veh, LOC101060439 /// RAP1B / RFU, RFX7 / Fold change vs veh, RFX7 / RFU, GTPBP10 / Fold change vs veh, GTPBP10 / RFU, CNEP1R1 / Fold change vs veh, CNEP1R1 / RFU, BIVM-ERCC5 /// ERCC5 / Fold change vs veh, BIVM-ERCC5 /// ERCC5 / RFU, ILF3 / Fold change vs veh, ILF3 / RFU 11762660_at / Fold change /veh 11762660_at / RFU VCAN (11757783_s_at) / Fold change /veh VCAN (11757783_s_at) / RFU DDX43 (11728927_at) / Fold change /veh DDX43 (11728927_at) / RFU KRT8 (11758188_x_at) / Fold change /veh KRT8 (11758188_x_at) / RFU NKD1 (11759106_at) / Fold change /veh NKD1 (11759106_at) / RFU SRD5A1 (11742802_a_at) / Fold change /veh SRD5A1 (11742802_a_at) / RFU TPSAB1 /// TPSB2 (11721975_s_at) / Fold change /veh TPSAB1 /// TPSB2 (11721975_s_at) / RFU GSTM3 (11746129_a_at) / Fold change /veh GSTM3 (11746129_a_at) / RFU IL23R (11737362_x_at) / Fold change /veh IL23R (11737362_x_at) / RFU TMEM51 (11727254_a_at) / Fold change /veh TMEM51 (11727254_a_at) / RFU PIWIL2 (11732686_x_at) / Fold change /veh PIWIL2 (11732686_x_at) / RFU ORM1 (11744905_x_at) / Fold change /veh ORM1 (11744905_x_at) / RFU CCDC152 (11743942_at) / Fold change /veh CCDC152 (11743942_at) / RFU ECM1 (11717891_a_at) / Fold change /veh ECM1 (11717891_a_at) / RFU IL23R (11748794_a_at) / Fold change /veh IL23R (11748794_a_at) / RFU TNFAIP8L3 (11732012_x_at) / Fold change /veh TNFAIP8L3 (11732012_x_at) / RFU MBOAT4 (11741988_at) / Fold change /veh MBOAT4 (11741988_at) / RFU 11764193_at / Fold change /veh 11764193_at / RFU TMEM53 (11763286_at) / Fold change /veh TMEM53 (11763286_at) / RFU MAGEB2 (11727129_at) / Fold change /veh MAGEB2 (11727129_at) / RFU TMEM200A (11744735_a_at) / Fold change /veh TMEM200A (11744735_a_at) / RFU CCDC152 (11751479_a_at) / Fold change /veh CCDC152 (11751479_a_at) / RFU FAM211A (11726209_a_at) / Fold change /veh FAM211A (11726209_a_at) / RFU RGS16 (11746705_a_at) / Fold change /veh RGS16 (11746705_a_at) / RFU VCAN (11755009_s_at) / Fold change /veh VCAN (11755009_s_at) / RFU RHOB (11743442_s_at) / Fold change /veh RHOB (11743442_s_at) / RFU RGS16 (11720943_a_at) / Fold change /veh RGS16 (11720943_a_at) / RFU RGS16 (11720944_at) / Fold change /veh RGS16 (11720944_at) / RFU, VPS4B / Fold change vs veh, VPS4B / RFU, CREB1 / Fold change vs veh, CREB1 / RFU, DNAJC13 / Fold change vs veh, DNAJC13 / RFU, GNAQ / Fold change vs veh, GNAQ / RFU, CDK5R1 / Fold change vs veh, CDK5R1 / RFU, ZRANB3 / Fold change vs veh, ZRANB3 / RFU, CUL4A / Fold change vs veh, CUL4A / RFU, CCNY / Fold change vs veh, CCNY / RFU, UFL1 / Fold change vs veh, UFL1 / RFU, COG3 / Fold change vs veh, COG3 / RFU, DIAPH2 / Fold change vs veh, DIAPH2 / RFU, SKA2 / Fold change vs veh, SKA2 / RFU, AFF3 / Fold change vs veh, AFF3 / RFU, LMF1 / Fold change vs veh, LMF1 / RFU, IPO11 / Fold change vs veh, IPO11 / RFU, DFFB / Fold change vs veh, DFFB / RFU, FOXP1 / Fold change vs veh, FOXP1 / RFU, CARD8 / Fold change vs veh, CARD8 / RFU, STRN3 / Fold change vs veh, STRN3 / RFU, ADK / Fold change vs veh, ADK / RFU, RASSF2 / Fold change vs veh, RASSF2 / RFU, WIPF1 / Fold change vs veh, WIPF1 / RFU, LARP1B / Fold change vs veh, LARP1B / RFU, RASA1 / Fold change vs veh, RASA1 / RFU, RB1 / Fold change vs veh, RB1 / RFU, PPFIA1 / Fold change vs veh, PPFIA1 / RFU, MAT2A / Fold change vs veh, MAT2A / RFU, CCT5 / Fold change vs veh, CCT5 / RFU, WDR92 / Fold change vs veh, WDR92 / RFU, CUX1 / Fold change vs veh, CUX1 / RFU, TTC7A / Fold change vs veh, TTC7A / RFU, TMEM135 / Fold change vs veh, TMEM135 / RFU, DEPTOR / Fold change vs veh, DEPTOR / RFU, CPM / Fold change vs veh, CPM / RFU, DNAJB6 / Fold change vs veh, DNAJB6 / RFU, CACNA2D3 / Fold change vs veh, CACNA2D3 / RFU, DTX4 / Fold change vs veh, DTX4 / RFU, TFCP2 / Fold change vs veh, TFCP2 / RFU, GMCL1 /// GMCL1P1 / Fold change vs veh, GMCL1 /// GMCL1P1 / RFU, AEBP2 / Fold change vs veh, AEBP2 / RFU, SNHG1 /// SNORD22 /// SNORD25 /// SNORD26 /// SNORD27 /// SNORD28 /// SNORD29 /// SNORD31 / Fold change vs veh, SNHG1 /// SNORD22 /// SNORD25 /// SNORD26 /// SNORD27 /// SNORD28 /// SNORD29 /// SNORD31 / Fold change (Aza/veh), C12orf56 (ProbeSet 11735607_a_at) / Fold change (ACY-1035/veh), C12orf56 (ProbeSet 11735607_a_at) / Fold change (Aza/veh), FGFR1OP (ProbeSet 11751329_s_at) / Fold change (ACY-1035/veh), FGFR1OP (ProbeSet 11751329_s_at) / Fold change (Aza/veh), VPS36 (ProbeSet 11739960_a_at) / Fold change (ACY-1035/veh), VPS36 (ProbeSet 11739960_a_at) / RFU SYPL1 (11715823_x_at) / Fold change /veh SYPL1 (11715823_x_at) / RFU IGFBP7 (11715501_s_at) / Fold change /veh IGFBP7 (11715501_s_at) / RFU REEP3 (11722064_at) / Fold change /veh REEP3 (11722064_at) / RFU IGLL1 (11728026_x_at) / Fold change /veh IGLL1 (11728026_x_at): dose or concentration left out as unconfirmed
Details: ProbeSet 11726703_a_at; LIST B

For Nc1ccc(-c2cccs2)cc1NC(=O)c1ccc2c(c1)cc(C1CC1)n2CCN1CCOCC1 [ACY-1035], the “Fold change vs veh, BCL10” value was 0.84.
